ChEMBL document CHEMBL1131771, “Structure-activity relationship analysis of substituted 4-quinolinamines, antagonists of immunostimulatory CpG-oligodeoxynucleotides” (Bioorg Med Chem Lett, 1999)

test: Concentration required for half-maximal inhibition of CpG-ODN effect on thymidine uptake by WEHI 231 murine B-cells in the presence of alpha-sIgM.; format: functional, cell-based; settings: Mus musculus, WEHI231

SMILES | EC50 [nM]
CN(C)CCNC(=O)c1cc(-c2ccc3ccccc3c2)nc2ccccc12 | > 10000
CN(C)CCNc1cc(/C=C/c2ccccc2)nc2ccccc12 | 6.5
CC(Nc1cc(-c2ccc3ccccc3c2)nc2ccccc12)C(O)c1ccccc1 (stereo not given) | 1000
Cc1ccc(-c2cc(NCCCN(C)C)c3ccccc3n2)cc1 | 11.5
CN(C)CCCCNc1cc(-c2ccc3ccccc3c2)nc2ccccc12 | 4
CN(C)CCNc1cc(-c2cccc3ccccc23)nc2ccccc12 | 39.8
CN(C)CCCNc1ccnc2ccccc12 | 4400
CN(C)CCSc1cc(-c2ccc3ccccc3c2)nc2ccccc12 | 2400
CN(C)CCNc1cc(-c2ccc3ccc4ccccc4c3c2)nc2ccccc12 | 11
CN(C)CCCCNc1ccnc2ccccc12 | 316
CN(C)CCN(C)c1cc(-c2ccc3ccccc3c2)nc2ccccc12 | 416
CN(C)CCCCCCNc1cc(-c2ccc3ccccc3c2)nc2ccccc12 | 5.9
CN(C)CCCNc1cc(-c2ccc3ccccc3c2)nc2ccccc12 | 11
CC(C)(C)OC(=O)NCCNc1cc(-c2ccc3ccccc3c2)nc2ccccc12 | 570
CN(C)CCOc1cc(-c2ccc3ccccc3c2)nc2ccccc12 | 478
OCCOCCNc1cc(-c2ccc3ccccc3c2)nc2ccccc12 | 330
OCCCCCCNc1cc(-c2ccc3ccccc3c2)nc2ccccc12 | 170
Cc1ccc(-c2cc(NCCN(C)C)c3ccccc3n2)cc1 | 12.3
CN(C)CCNc1cc(-c2ccc(C(F)(F)F)cc2)nc2ccccc12 | 155
CCN(CC)CCCC(C)Nc1ccnc2cc(Cl)ccc12 (stereo not given) [CHLOROQUINE] | 110
CCN(CC)CCCC(C)Nc1cc(-c2ccccc2)nc2cc(Cl)ccc12 (stereo not given) | 51.3

Other lines, results leading:

EC50 [nM] | SMILES
9.1 | CN(C)CCNc1cc(-c2ccc3ccccc3c2)nc2ccccc12
320 | Oc1ccc(Nc2cc(-c3ccc4ccccc4c3)nc3ccccc23)cc1
25.1 | O=C(CCCO)NCCCN1CCN(CCCNc2cc(-c3ccc4ccccc4c3)nc3ccccc23)CC1
10 | Oc1c(CN2CCOCC2)cc(Nc2cc(-c3ccc4ccccc4c3)nc3ccccc23)cc1CN1CCOCC1
> 10000 | CCCCc1ccc(Nc2cc(-c3ccc4ccccc4c3)nc3ccccc23)cc1
1150 | CC(CCCC(C)(C)O)Nc1cc(-c2ccc3ccccc3c2)nc2ccccc12 (stereo not given)
1.5 | Oc1c(CN2CCCCC2)cc(Nc2cc(-c3ccc4ccccc4c3)nc3ccccc23)cc1CN1CCCCC1
1.2 | Oc1c(CN2CCCC2)cc(Nc2cc(-c3ccc4ccccc4c3)nc3ccccc23)cc1CN1CCCC1
0.24 | CN1CCN(Cc2cc(Nc3cc(-c4ccc5ccccc5c4)nc4ccccc34)cc(CN3CCN(C)CC3)c2O)CC1
510 | OCCc1ccc(Nc2cc(-c3ccc4ccccc4c3)nc3ccccc23)cc1

test: Acid dissociation constant was evaluated; format: ADME; settings: not given

pKa | SMILES
2.9 | CN(C)CCNC(=O)c1cc(-c2ccc3ccccc3c2)nc2ccccc12
6.2 | CN(C)CCN(C)c1cc(-c2ccc3ccccc3c2)nc2ccccc12
6.1 | CN(C)CCOc1cc(-c2ccc3ccccc3c2)nc2ccccc12
6.9 | CN1CCN(Cc2cc(Nc3cc(-c4ccc5ccccc5c4)nc4ccccc34)cc(CN3CCN(C)CC3)c2O)CC1
